Molecules are shown by their SMILES. pIC50: −log10 of the molar value. Where “and” joins values, the source holds several entries; their conditions need not be identical. Identical values can stand only once.

For data set [1], the system named is Trypanosoma brucei brucei. As to the kind of experiment: microbe, parasite or virus in culture. The class given is functional, organism-based, STIB 795.
Description: DNDI: Inhibition of Human African Trypanosomiasis (HAT), STIB 795, in vitro
Data set [2] can be described thus: (§1) DNDI: Cytotoxicity against human MRC-5 lung fibroblast cells. Particulars: IC50.
Data set [3] deals with MRC5. Described as §1.
Data set [4] has as its system Plasmodium falciparum. The data set can be described thus: DNDI: Inhibition of the malaria parasite Plasmodium falciparum, in vitro. The data set is classed as functional, organism-based. Particulars: K1.
Data set [5] can be described thus: DNDI: Cytotoxicity against L-6 rat myoblasts from skeletal muscle. The class given is toxicity, cell-based, Muscle tissue, L6. Particulars: L-6 rat skeletal muscle myoblast cells.
Data set [6] deals with Trypanosoma brucei rhodesiense. The data set can be described thus: DNDI: Inhibition of Human African Trypanosomiasis (HAT), STIB 900, in vitro. The class given is functional, organism-based.
Data set [7] deals with Trypanosoma cruzi. As to the kind of experiment: DNDI: Inhibition of Chagas Disease parasite Trypanosoma cruzi (Tulahuen LacZ, Clone C4), in vitro. The class given is functional, organism-based.
In data set [8] the test system is Leishmania donovani. As to the kind of experiment: DNDI: Inhibition of formation of Leishmania donovani (strain MHOM/ET/67/L82) axenic amastigotes, in vitro. The class given is functional, organism-based.

As for `Cc1ccc2[nH]c3c(c2c1)CCCC3CN` (stereo not drawn), the pIC50 in data set [1] was 6.18; in data set [1] (Trypanosoma brucei, STIB 795) it was 5.91; in data set [2], under 4.98; in data set [3] it was under 4.68.

With `Cc1ccc(-c2cnc3ccccc3[n+]2C)c(C)c1`, the negative-log IC50 (pIC50) is 6.13 and 5.48 in data set [1]; under 4.68 in data set [2]; under 4.98 in data set [3].

Turning to `Cc1cc(=O)[nH]c(-n2nc(C)cc2NC(=O)C2CCCC2)n1`, the pIC50 in data set [1] (Trypanosoma brucei, STIB 795) was 6.36; in data set [2] it was under 4.98; in data set [4], 5.62; in data set [5] it was 6.58; in data set [6] it was 5.85; in data set [7], 5.35. This molecule gave a pIC50 in data set [8] of 6.84.

Turning to `CC(C)(C)C(=O)NCCc1csc(-c2cccc(F)c2)n1`, the pIC50 in data set [1] (Trypanosoma brucei, STIB 795) is 6.36; in data set [2], under 4.38; in data set [4], 4.97; in data set [5], 4.72; in data set [6], 6.35; in data set [7] it was 6.15. The same molecule showed a pIC50 in data set [8] of 4.85.

`O=C(CCc1ccccc1)N/N=C/c1ccc(O)c2ncccc12`: the pIC50 in data set [1] is 6.34; in data set [1] (Trypanosoma brucei, STIB 795) it was 6.32; in data set [2], under 4.98; in data set [3], under 4.68.

As for `O=C(NCCc1n[nH]c(-c2ccc(F)cc2)n1)c1cccc(F)c1`, the pIC50 was 5.71 in data set [1] (Trypanosoma brucei, STIB 795); under 4.38 in data set [2]; 5.11 in data set [4]; 4.41 in data set [5]; 5.65 in data set [6]; 5.20 in data set [7]. In addition, the pIC50 in data set [8] was 4.81.

In the case of `COc1ccc2[nH]c(C)c(CCNCCC3=C(C)CCCC3(C)C)c2c1`, the pIC50 is 5.75 in data set [1]; 5.88 in data set [1] (Trypanosoma brucei, STIB 795); 5.23 in data set [2]; 5.31 in data set [3].

For `CC1=NN(c2cccc(Cl)c2)C(=O)/C1=C\NNC(=O)c1ccccc1`, the pIC50 in data set [1] is 5.72; in data set [1] (Trypanosoma brucei, STIB 795), 5.83; in data set [2] it was under 5.38; in data set [3] it was 5.34.

On to `COc1ccc(C(NC(=O)C(C)C)c2ccc3cccnc3c2O)cc1OC` (stereo not drawn), for which the pIC50 in data set [1] is 5.56 and 5.97; in data set [2], 5.64; in data set [3], under 5.38.

`CCc1ccccc1/N=C(\NCCN1CCOCC1)NC(=O)c1ccccc1`: the pIC50 is 6.17 in data set [1] (Trypanosoma brucei, STIB 795); under 4.38 in data set [2]; 5.69 in data set [4]; 4.30 in data set [5]; 6.48 in data set [6]; 4.51 in data set [7]. In data set [8], this molecule had a pIC50 of 4.08.

In the case of `CCOC(=O)c1ccc(NC(=O)C2CCCN(C(=O)c3ccccc3F)C2)cc1` (stereo not drawn), the pIC50 in data set [1] (Trypanosoma brucei, STIB 795) is 4.25; in data set [2], under 4.68.

For the molecule `COC(=O)c1c(SCC(=O)Nc2cccc(OC)c2)[nH]c2ccccc2c1=O`, the pIC50 in data set [1] (Trypanosoma brucei, STIB 795) was 5.34; in data set [2], under 4.68.

In the case of `CCS(=O)(=O)N1CCCc2ccc(NS(=O)(=O)c3ccccc3F)cc21`, the pIC50 in data set [1] (Trypanosoma brucei, STIB 795) is 5.89; in data set [2], under 4.38; in data set [4], 5.30; in data set [5], 5.06; in data set [6], 5.24; in data set [7] it was 5.23. Also, the pIC50 in data set [8] is 5.58.

With `CCn1c(SCC(=O)N/N=C(\C)c2ccc(O)c(OC)c2)nc2ccccc21`, the pIC50 was 5.30 in data set [1] (Trypanosoma brucei, STIB 795) and under 4.38 in data set [2].

As to `CCN(CC)c1ccc(C(Nc2ccccn2)c2ccc3cccnc3c2O)cc1` (stereo not drawn), the pIC50 in data set [1] (Trypanosoma brucei, STIB 795) is 5.06; in data set [2], under 4.68.

For the molecule `Cc1ccsc1/C=C(\C(=O)NCc1cccnc1)S(=O)(=O)c1ccccc1`, the pIC50 in data set [1] (Trypanosoma brucei, STIB 795) was 5.28; in data set [2], under 4.68.

`COc1cc(-n2nnn(C3CC(=O)C4OCC3O4)c2=S)c(OC)cc1Cl` (stereo not drawn): the pIC50 in data set [1] is < 4.98 and 5.32; in data set [2] it was under 4.68.

As for `N=C(N)N/N=C(/C=C(\c1ccc(Cl)cc1)n1ccnc1)c1ccc(Cl)cc1`, the pIC50 in data set [1] (Trypanosoma brucei, STIB 795) was 5.52; in data set [2] it was under 4.98.

With `CCC(=O)N(CC(CC(C)C)N1CCN(C)CC1)c1ccc(C2CCCC2)cc1` (stereo not drawn), the pIC50 in data set [1] (Trypanosoma brucei, STIB 795) was 5.32; in data set [2], under 4.38.

Turning to `N=c1n(CCOc2ccccc2)c2ccccc2n1CCN1CCCCC1`, the pIC50 in data set [1] is 5.53 and < 4.98; in data set [2], under 4.68.

For `O=C(NC(c1ccc2c(c1)OCO2)c1ccc2cccnc2c1O)c1ccccc1` (stereo not drawn), the pIC50 was 5.31 in data set [1] (Trypanosoma brucei, STIB 795) and under 5.38 in data set [2].

With `CNC1=C(N(C(C)=O)c2ccc(Br)cc2)C(=O)c2ccccc2C1=O`, the pIC50 was 6.29 in data set [1] (Trypanosoma brucei, STIB 795) and 5.31 in data set [2].

With `CN(C)c1ccc2nc3ccc(=[N+](C)C)cc-3sc2c1` [METHYLENE BLUE CATION], the pIC50 in data set [1] (Trypanosoma brucei, STIB 795) is over 7.70; in data set [2] it was under 5.68.

Take `Cc1ccc2ccc3ccc(C)nc3c2n1` [NEOCUPROINE]: the pIC50 was 6.25 in data set [1] (Trypanosoma brucei, STIB 795) and under 4.68 in data set [2].

A word on the pIC50: it is −log10 of the IC50, conventionally taken in molar units. Read a low pIC50 as a high IC50.
